Data published in US12145929B2, “Piperidine derivative and pharmaceutical composition for inhibiting autotaxin comprising same” (NEXTGEN BIOSCIENCE CO., LTD., priority 2021, dated 2024).

Target: human Autotaxin protein (Homo sapiens, UniProt Q13822)
Test: Evaluation of inhibitory activity against human Autotaxin protein (18:1 LysoPC substrate, choline assay kit, absorbance 570 nm)
Format: biochemical
Settings: compound at 500 nM, 2 hours at 37° C.
Experimental: The solution of each synthesized compound (80 uM, 100% dimethyl sulfoxide) was sequentially diluted 5 times with dimethyl sulfoxide to prepare 6 concentrations. Each concentration of compound was diluted two-fold with 1× test buffer (50 mM Tris-Cl (pH 8.0), 5 mM KCl, 1 mM CaCl2), 1 mM MgCl2, 140 mM NaCl, deionized water, 1 mg/mL BSA), and 1 uL (1.25% dimethyl sulfoxide) of this diluted mixture was dispensed into each well of a 96 well clear round bottom plate. 9 uL of 1× test buffer were added to each well, followed by the addition of 20 uL of 240 nM human Autotaxin protein (buffer: 50 mM Tris-HCl, pH 8.0, with 150 mM sodium chloride and 20% glycerol). 10 uL of sonicated 360 uM 18:1 LysoPC (diluted with 1× test buffer) were added to each well. The reaction was performed for 2 hours in a shaking incubator at 37° C., and a secondary reaction mixture (choline assay kit, KA1662) (65 uL of 1× test buffer: 1 uL of choline oxidase: 1 uL of dye probe) was prepared. 60 uL of the secondary reaction mixture were added to the reaction plate and reacted on a shaker for 30 minutes. Using a SpectraMax iD3 microplate reader, the absorbance was measured at a wavelength of 570 nm. The percentage of inhibition activity (% inhibition) was calculated by the Formula: (1−Absorbancetestgroup/Absorbancecontrol group)×100.

inhibition at 0.5 µM	inhibition (%) at 500 nM	SMILES
99%	–	c1ccc2c(c1)CC(Nc1ncc(-c3nnc(N4CCC(c5cnn[nH]5)CC4)o3)cn1)C2 [Example 1, 5-(5-(4-(1H-1,2,3-Triazol-5-yl)piperidin-1-yl)-1,3,4-oxadiazol-2-yl)-N-(2,3-dihydro-1H-inden-2-yl)pyrimidin-2-amine]
100%	–	Fc1ccc2c(c1)CC(Nc1ncc(-c3nnc(N4CCC(c5cnn[nH]5)CC4)o3)cn1)C2 (centres unmarked) [Example 2, 5-(5-(4-(1H-1,2,3-Triazol-5-yl)piperidin-1-yl)-1,3,4-oxadiazol-2-yl)-N-(5-fluoro-2,3-dihydro-1H-inden-2-yl)pyrimidin-2-amine]
100%	–	Clc1ccc2c(c1)CC(Nc1ncc(-c3nnc(N4CCC(c5cnn[nH]5)CC4)o3)cn1)C2 (centres unmarked) [Example 3, 5-(5-(4-(1H-1,2,3-Triazol-5-yl)piperidin-1-yl)-1,3,4-oxadiazol-2-yl)-N-(5-chloro-2,3-dihydro-1H-inden-2-yl)pyrimidin-2-amine]
90%	–	Brc1ccc2c(c1)CC(Nc1ncc(-c3nnc(N4CCC(c5cnn[nH]5)CC4)o3)cn1)C2 (centres unmarked) [Example 4, 5-(5-(4-(1H-1,2,3-Triazol-5-yl)piperidin-1-yl)-1,3,4-oxadiazol-2-yl)-N-(5-bromo-2,3-dihydro-1H-inden-2-yl)pyrimidin-2-amine]
100%	–	Fc1cc2c(cc1F)CC(Nc1ncc(-c3nnc(N4CCC(c5cnn[nH]5)CC4)o3)cn1)C2 [Example 5, 5-(5-(4-(1H-1,2,3-Triazol-5-yl)piperidin-1-yl)-1,3,4-oxadiazol-2-yl)-N-(5,6-difluoro-2,3-dihydro-1H-inden-2-yl)pyrimidin-2-amine]
91%	–	Clc1cc2c(cc1Cl)CC(Nc1ncc(-c3nnc(N4CCC(c5cnn[nH]5)CC4)o3)cn1)C2 [Example 6, 5-(5-(4-(1H-1,2,3-Triazol-5-yl)piperidin-1-yl)-1,3,4-oxadiazol-2-yl)-N-(5,6-dichloro-2,3-dihydro-1H-inden-2-yl)pyrimidin-2-amine]
40%	–	c1cnc2c(n1)CC(Nc1ncc(-c3nnc(N4CCC(c5cnn[nH]5)CC4)o3)cn1)C2 [Example 7, N-(5-(5-(4-(1H-1,2,3-triazol-5-yl)piperidin-1-yl)-1,3,4-oxadiazol-2-yl)pyrimidin-2-yl)-6,7-dihydro-5H-cyclopenta[b]pyrazin-6-amine]
14%	–	c1ccc2c(c1)CC(Nc1ccc(-c3nnc(N4CCC(c5cnn[nH]5)CC4)o3)nn1)C2 [Example 8, 6-(5-(4-(1H-1,2,3-Triazol-5-yl)piperidin-1-yl)-1,3,4-oxadiazol-2-yl)-N-(2,3-dihydro-1H-inden-2-yl)pyridazin-3-amine]
81%	–	c1ccc2c(c1)CC(Nc1ncc(-c3nnc(N4CCC(n5cncn5)CC4)o3)cn1)C2 [Example 9, 5-(5-(4-(1H-1,2,4-Triazol-1-yl)piperidin-1-yl)-1,3,4-oxadiazol-2-yl)-N-(2,3-dihydro-1H-inden-2-yl)pyrimidin-2-amine]
75%	–	Cc1ncn(C2CCN(c3nnc(-c4cnc(NC5Cc6ccccc6C5)nc4)o3)CC2)n1 [Example 10, N-(2,3-dihydro-1H-inden-2-yl)-5-(5-(4-(3-methyl-1H-1,2,4-triazol-1-yl)piperidin-1-yl)-1,3,4-oxadiazol-2-yl)pyrimidin-2-amine]
99%	–	CC1CC(c2cnn[nH]2)CCN1c1nnc(-c2cnc(NC3Cc4ccc(Br)cc4C3)nc2)o1 (centres unmarked) [Example 11, N-(5-bromo-2,3-dihydro-1H-inden-2-yl)-5-(5-(2-methyl-4-(1H-1,2,3-triazol-5-yl)piperidin-1-yl)-1,3,4-oxadiazol-2-yl)pyrimidin-2-amine]
84%	–	Brc1ccc2c(c1)CC(Nc1ccc(-c3nnc(N4CCC(c5cnn[nH]5)CC4)o3)cn1)C2 (centres unmarked) [Example 12, 5-(5-(4-(1H-1,2,3-Triazol-5-yl)piperidin-1-yl)-1,3,4-oxadiazol-2-yl)-N-(5-bromo-2,3-dihydro-1H-inden-2-yl)pyridin-2-amine]
75%	–	Brc1ccc2c(c1)CC(Nc1cnc(-c3nnc(N4CCC(c5cnn[nH]5)CC4)o3)cn1)C2 (centres unmarked) [Example 13, 5-(5-(4-(1H-1,2,3-Triazol-5-yl)piperidin-1-yl)-1,3,4-oxadiazol-2-yl)-N-(5-bromo-2,3-dihydro-1H-inden-2-yl)pyrazin-2-amine]
5%	–	Clc1cc(NC2Cc3ccc(Br)cc3C2)ncc1-c1nnc(N2CCC(c3cnn[nH]3)CC2)o1 (centres unmarked) [Example 14, 5-(5-(4-(1H-1,2,3-Triazol-5-yl)piperidin-1-yl)-1,3,4-oxadiazol-2-yl)-N-(5-bromo-2,3-dihydro-1H-inden-2-yl)-4-chloropyridin-2-amine]
100%	–	Clc1cc(Cl)cc(CNc2ncc(-c3nnc(N4CCC(c5cnn[nH]5)CC4)o3)cn2)c1 [Example 15, 5-(5-(4-(1H-1,2,3-Triazol-5-yl)piperidin-1-yl)-1,3,4-oxadiazol-2-yl)-N-(3,5-dichlorobenzyl)pyrimidin-2-amine]
–	84%	Clc1cc(Cl)cc(CCNc2ncc(-c3nnc(N4CCC(c5cnn[nH]5)CC4)o3)cn2)c1 [Example 16, 5-(5-(4-(H-1,2,3-Triazol-5-yl)piperidin-1-yl)-1,3,4-oxadiazol-2-yl)-N-(3,5-dichlorophenethyl)pyrimidin-2-amine]
92%	–	O=C(CCc1cnc(NC2Cc3ccccc3C2)nc1)N1CCC(c2cnn[nH]2)CC1 [Example 17, 1-(4-(1H-1,2,3-Triazol-5-yl)piperidin-1-yl)-3-(2-((2,3-dihydro-1H-inden-2-yl)amino)pyrimidin-5-yl)propan-1-one]
85%	–	O=C(CCc1cnc(NC2Cc3ccccc3C2)nc1)N1CCC(c2cnc[nH]2)CC1 [Example 18, 1-(4-(1H-Imidazol-5-yl)piperidin-1-yl)-3-(2-((2,3-dihydro-1H-inden-2-yl)amino)pyrimidin-5-yl)propan-1-one]
43%	–	O=C(CCCc1nnc(NC2Cc3ccccc3C2)s1)N1CCC(c2cnn[nH]2)CC1 [Example 19, 1-(4-(1H-1,2,3-Triazol-5-yl)piperidin-1-yl)-4-(5-((2,3-dihydro-1H-inden-2-yl)amino)-1,3,4-thiadiazol-2-yl)butan-1-one]
14%	–	O=C(CCCc1nnc(NC2Cc3ccccc3C2)s1)N1CCC(c2cnc[nH]2)CC1 [Example 20, 1-(4-(1H-Imidazol-5-yl)piperidin-1-yl)-4-(5-((2,3-dihydro-1H-inden-2-yl)amino)-1,3,4-thiadiazol-2-yl)butan-1-one]
64%	–	O=C(CCCc1nnc(NC2Cc3ccccc3C2)o1)N1CCC(c2cnn[nH]2)CC1 [Example 21, 1-(4-(1H-1,2,3-Triazol-5-yl)piperidin-1-yl)-4-(5-((2,3-dihydro-1H-inden-2-yl)amino)-1,3,4-oxadiazol-2-yl)butan-1-one]
17%	–	O=C(CCCc1nnc(NC2Cc3ccccc3C2)o1)N1CCC(c2cnc[nH]2)CC1 [Example 22, 1-(4-(1H-Imidazol-5-yl)piperidin-1-yl)-4-(5-((2,3-dihydro-1H-inden-2-yl)amino)-1,3,4-oxadiazol-2-yl)butan-1-one]
20%	–	O=C(COCc1nnc(NC2Cc3ccccc3C2)s1)N1CCC(c2cnn[nH]2)CC1 [Example 23, 1-(4-(1H-1,2,3-Triazol-5-yl)piperidin-1-yl)-2-((5-((2,3-dihydro-1H-inden-2-yl)amino)-1,3,4-thiadiazol-2-yl)methoxy)ethanone]
